Key:
[1] = biological target: T1, ERK2-stimulated Dusp6 (Homo sapiens, UniProt Q16828); test: ERK2-induced activation of Dusp6, OMFP dephosphorylation; format: biochemical; details: BCI 100 μM
T1 construct: His; made in house
Method: (§1) For OMFP based ERK2 induced activation of Dusp6, recombinant His-tagged Dusp6 was expressed from a bacterial expression vector and 250 ng were incubated with the indicated concentrations of NSC95397 or BCI. OMFP was added at its apparent Km (100 μM) (Vogt, A. et al. J Biol Chem 280, 19078-86 (2005)). The final reaction volume was 15 μl. After 1 h at RT, OMF fluorescence was measured on an M5 multimode reader (Molecular Devices) at excitation/emission wavelengths of 485/525 nm. To assay activated Dusp6, 210 ng or 2.1 μg of recombinant ERK2 (Cell signaling) were added to Dusp6(210 ng)/BCI(100 μM) mixtures to measure activation at 1:1 and 1:10 ratio of substrate to enzyme. OMFP was immediately added and fluorescence (ex485/em525 nm) was read every 10 min for 130 min. Fold activation was calculated at 60 mins in each experiment.

[2] = system: Dusp5; test: Zebrafish mRNA microinjection, rescue of sef expression, dusp5; format: in vivo; details: 5 μM BCI, shield stage
Method: (§2) dusp6 and XFD mRNA for microinjection studies were generated as previously described (Tsang, M. et al. Development 131, 2769-79 (2004)). Both Dusp5 and Spry4 ORFs were amplified by RT-PCR from 24 hpf zebrafish with the following primers: […]
(§3) Amplified PCR products were subcloned into pCS2+, sequenced verified and mRNAs were synthesized as described previously. Embryos were injected with 500 pg mRNA at the 1-2 cell stage, treated with 5 μM BCI at the 1000-cell stage and fixed at shield stage for in situ hybridization.
(§4) In situ hybridization experiments were carried out as described previously (Kudoh, T. et al. Genome Res 11, 1979-87 (2001)). The probes eng3, krox20, sef, dusp6, gata4, nkx2.5, cmlc2, vmhc, scl, etsrp and hand2 were generated with a RNA labeling kit (Roche) (Tsang, M. et al. Development 131, 2769-79 (2004); Chen, J. N. et al. Development 122, 3809-16 (1996); Ekker, M., et al. Development 116, 1001-10 (1992); Liao, E. C. et al. Genes Dev 12, 621-6 (1998); Oxtoby, E. et al. Nucleic Acids Res 21, 1087-95 (1993); Pham, V. N. et al. Dev Biol 303, 772-83 (2007); Tsang, M., et al. Nat Cell Biol 4, 165-9 (2002); Yelon, D., et al. Dev Biol 214, 23-37 (1999); and Yelon, D. et al. Development 127, 2573-82 (2000)). The double fluorescent in situ hybridization protocol was described by Schoenbeck et al. (Dev Cell 13, 254-67 (2007)). […]

[3] = system: FGF target genes sef and spry4; test: Semi-quantitative RT-PCR of FGF target genes in treated embryos; format: in vivo, zebrafish; details: 24 hpf, 6 hours, 10 μM and 20 μM, n=3
Method: Zebrafish embryos were treated at 24 hpf for 6 hours with BCI at 10 μM and 20 μM followed by total RNA extraction with Trizol (Invitrogen). cDNA synthesis with SuperScript II Reverse Transcriptase (Invitrogen) was performed as described by manufacture's protocol and by Tsang et al. 17. For PCR reaction, HotMaster Taq (Eppendorf) was used with the following primers: […]
Cycle conditions were: 94° C. 30 sec, 55° C. 45 sec, 72° C. 40 sec, for 25 cycles. PCR products were resolved on 3% agarose gels.

[4] = system: FGF target genes; test: Whole mount in situ hybridization of FGF target genes in treated embryos; format: in vivo, zebrafish
Method: In situ hybridization experiments were carried out as described previously (Kudoh, T. et al. Genome Res 11, 1979-87 (2001)). The probes eng3, krox20, sef, dusp6, gata4, nkx2.5, cmlc2, vmhc, scl, etsrp and hand2 were generated with a RNA labeling kit (Roche) (Tsang, M. et al. Development 131, 2769-79 (2004); Chen, J. N. et al. Development 122, 3809-16 (1996); Ekker, M., et al. Development 116, 1001-10 (1992); Liao, E. C. et al. Genes Dev 12, 621-6 (1998); Oxtoby, E. et al. Nucleic Acids Res 21, 1087-95 (1993); Pham, V. N. et al. Dev Biol 303, 772-83 (2007); Tsang, M., et al. Nat Cell Biol 4, 165-9 (2002); Yelon, D., et al. Dev Biol 214, 23-37 (1999); and Yelon, D. et al. Development 127, 2573-82 (2000)). The double fluorescent in situ hybridization protocol was described by Schoenbeck et al. (Dev Cell 13, 254-67 (2007)). Fluorescent in situ hybridizations were visualized by confocal microscopy. Single optical sections and z-series of flat-mounted stained embryos were collected with a confocal laser scan head (SP5, Leica Microsystems, Inc.) mounted on an inverted compound microscope (DM16000, Leica Microsystems, Inc.). Images were scanned and compiled with NIH ImageJ software (rsb.info.nih.gov/ij/).
We previously described the generation of a transgenic zebrafish line, (Tg(Dusp6:d2EGFP)pt6) that expresses destabilized green fluorescent protein (d2EGFP) under the control of FGF signaling (Molina, G. A., et al. BMC Dev Biol 7, 62 (2007)). […] Five transgenic embryos at 24 hours post fertilization (hpf) were arrayed into each well of a 96-well plate containing test compounds at 10 μM. d2EGFP intensity in treated embryos was visually analyzed and compared to vehicle control (0.5% DMSO) after 6-8 hours. […] To confirm that BCI hyperactivated FGF signaling, we treated embryos prior to gastrulation (5 hpf), and we analyzed by whole mount in situ hybridization, the expression of ntl (zebrafish brachyury), a known FGF target gene (Latinkic, B. V. et al. Genes Dev 11, 3265-76 (1997)). […] We next determined the BCI structural features required to enhance FGF signaling. […]

[5] = system: XFD (dominant negative FGF receptor); test: Zebrafish mRNA microinjection, rescue of sef expression, XFD; format: in vivo; details: 5 μM BCI, shield stage
Method: as §2, §3, §4

[6] = biological target: T2, Dusp6 (Homo sapiens, UniProt Q16828); test: Basal Dusp6 dephosphorylation of OMFP; format: biochemical; set-up: His; made in house; details: 100 μM
T2 sequence (Q16828 1-381): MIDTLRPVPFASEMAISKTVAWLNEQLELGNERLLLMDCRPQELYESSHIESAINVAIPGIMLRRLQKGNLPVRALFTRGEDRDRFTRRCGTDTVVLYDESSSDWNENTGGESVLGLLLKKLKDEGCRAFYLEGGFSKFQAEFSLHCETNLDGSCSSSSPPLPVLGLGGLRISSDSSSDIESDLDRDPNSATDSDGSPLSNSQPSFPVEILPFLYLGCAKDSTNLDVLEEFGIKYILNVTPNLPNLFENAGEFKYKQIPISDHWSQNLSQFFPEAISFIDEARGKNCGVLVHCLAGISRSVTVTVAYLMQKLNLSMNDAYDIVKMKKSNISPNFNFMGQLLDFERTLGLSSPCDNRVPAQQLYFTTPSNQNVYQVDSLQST
Method: as §1

T1 sequence (P28482 whole entry partner, one chain of several): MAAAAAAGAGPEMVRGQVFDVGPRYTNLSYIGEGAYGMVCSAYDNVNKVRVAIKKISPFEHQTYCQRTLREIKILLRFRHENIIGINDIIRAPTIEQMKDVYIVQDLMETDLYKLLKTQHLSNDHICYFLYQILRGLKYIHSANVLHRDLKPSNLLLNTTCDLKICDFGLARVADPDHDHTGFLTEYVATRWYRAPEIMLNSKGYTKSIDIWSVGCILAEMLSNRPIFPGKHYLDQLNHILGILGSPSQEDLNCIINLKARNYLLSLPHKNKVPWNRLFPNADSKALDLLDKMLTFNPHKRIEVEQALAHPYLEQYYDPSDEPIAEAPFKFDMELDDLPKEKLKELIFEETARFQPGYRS

With `O=C1/C(=C/c2ccccc2)C(NC2CCCCC2)c2ccccc21` (stereo not drawn) [Compound 3, (E)-2-benzylidene-3-(cyclohexylamino)-2,3-dihydro-1H-inden-1-one] the “inhibition of ERK2-stimulated Dusp6 dephosphorylation of OMFP” value ([1]; ERK2 three-fold stimulation (1:1)) was 57%, the “inhibition of ERK2-stimulated Dusp6 dephosphorylation of OMFP” value ([1]; ratio of ERK2 to Dusp6 10:1, 7-fold enhancement) was 30% and the “reversal of phenotype caused by Dusp5 over-expression” value [2] was “little or no effect”. The “expression of sef and spry4” value [3] was “increase”, the expression of ntl ([4]; treated prior to gastrulation (5 hpf), 6-somite stage) was “greatly expanded” and the “expression of engrailed3 (eng3) and krox20” value ([4]; treatment during somitogenesis) was “increased expression”. For the same molecule, the “expression of dusp6” value ([4]; treatment from the 1- to 10-somite stage) was “marked increase”, the “reversal of effects of XFD mRNA on sef expression” value [5] was “did not reverse” and the “inhibition of basal Dusp6 activity toward OMFP” value [6] was “did not inhibit basal Dusp6 activity”.

Reference: US9127016B2, “Small molecule inhibitors of Dusp6 and uses therefor” (University of Pittsburgh—Of the Commonwealth System of …, priority 2009, dated 2015)
